Measurements: doi:10.1101/2025.03.10.642353v1, “Deciphering the role of histo-blood group antigens in bovine rotavirus C infection” (biorxiv, 2025)

Target: T1, bovine P[3] RVC VP8* (Bovine rotavirus C, UniProt L0N4C6)
T1 construct: gene VP4; VP8* galectin-like domain of polyprotein-like spike VP4 (trypsin-cleaved), residues 64-228 (E64-R228), synthetic codon-optimised gene, pGEX-2T N-terminal GST, E. coli BL21(DE3)
Test: STD NMR (binding epitope mapping)
Settings: PBS in D2O, pH 7.4, 278 K; 50 uM protein, 2 mM ligand; both anomers of reducing GlcNAc
Description: STD NMR (binding epitope mapping) on bovine P[3]

Question: For `CC(=O)N[C@H]1C(O)O[C@H](CO)[C@@H](O[C@@H]2O[C@H](CO)[C@H](O)[C@H](O)[C@H]2O[C@@H]2O[C@@H](C)[C@@H](O)[C@@H](O)[C@@H]2O)[C@@H]1O` (stereo partly drawn) [H2, Fuc-α1,2-Gal-β1,4-GlcNAc], which “STD NMR (binding epitope mapping)” value is on record?
Answer: The value was “All performed STD NMR experiments showed clear signals confirming the binding of H2 antigen”.
